Paper PMC12016938, “A small molecule PKCε inhibitor reduces hyperalgesia induced by paclitaxel or opioid withdrawal” (JCI Insight, 2025)
≈ marks a conversion by molar mass, not a printed value. Where “and” joins values, the source holds several entries; their conditions need not be identical. Equal values may be shown once. Read-outs that look alike come from different tables or passages of the source.

How the values were obtained:
[1] = target: T1, PKCβII (Homo sapiens, UniProt P05771); assay: Lance-FRET kinase assay, PKCβII; type: biochemical; conditions: Figure 1B
T1 construct: purchased SignalChem Biotech
T1 sequence (P05771 1-673 isoform P05771-2): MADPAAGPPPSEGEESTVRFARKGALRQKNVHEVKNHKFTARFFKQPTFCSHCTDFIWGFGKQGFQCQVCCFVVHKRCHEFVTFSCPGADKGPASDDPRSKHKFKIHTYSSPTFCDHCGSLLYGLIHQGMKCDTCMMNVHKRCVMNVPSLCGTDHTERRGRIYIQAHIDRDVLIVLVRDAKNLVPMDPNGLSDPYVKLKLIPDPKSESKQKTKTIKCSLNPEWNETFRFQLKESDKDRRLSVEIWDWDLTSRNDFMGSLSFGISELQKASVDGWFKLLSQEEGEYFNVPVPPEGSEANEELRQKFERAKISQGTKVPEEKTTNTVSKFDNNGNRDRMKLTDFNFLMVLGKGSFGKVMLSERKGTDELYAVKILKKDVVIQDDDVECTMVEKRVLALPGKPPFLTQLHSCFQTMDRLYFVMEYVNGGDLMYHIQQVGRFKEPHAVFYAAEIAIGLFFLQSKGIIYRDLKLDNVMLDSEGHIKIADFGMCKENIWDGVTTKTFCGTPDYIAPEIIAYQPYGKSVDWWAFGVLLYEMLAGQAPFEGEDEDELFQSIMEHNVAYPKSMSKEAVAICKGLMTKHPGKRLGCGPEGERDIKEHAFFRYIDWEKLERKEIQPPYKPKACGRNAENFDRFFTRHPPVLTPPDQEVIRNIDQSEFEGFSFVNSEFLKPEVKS
Protocol: (§1) Kinase assays. CP612 was assayed against His-AVI–tagged human PKCε (1 nM) produced in Sf9 cells, and ROCK1 (Carna Biosciences; 5 nM) using the Lance-FRET kinase assay system (PerkinElmer Revvity). Other human recombinant PKCs (SignalChem Biotech) were assayed in triplicate at the following concentrations: PKCβII 1.6 nM, PKCγ 500 pM, PKCδ 5 nM, PKCθ 500 pM, and PKCζ 500 pM. PKCs were incubated in a 15 μL reaction volume with kinase buffer (20 mM Tris-HCL [pH 7.4], 10 mM MgCl2, 0.25 mM EGTA, 0.1 mg/mL BSA, and 0.15% Triton X-100), 50 nM ULight-labeled CREBtide […] (PerkinElmer, TRF0107, Revvity), and test compound. […] After incubation at 27°C for another 60 minutes, phosphorylation was detected using a FlexStation 3 Microplate Reader (Molecular Devices) in LANCE TR-FRET mode (excitation = 340 nm, emission = 665 nm) and expressed as relative fluorescence units (RFU). The percentage of inhibition was calculated as: (signal without test compound − signal with test compound)/(signal without test compound − signal without ATP) × 100. […]
(§2) Kinase assays used 11-point concentration-response curves and results were analyzed by nonlinear regression using Prism 9 (GraphPad Software) to determine IC50 values. […] Scores for pain threshold, conditioned place preference, and self-administration were analyzed by ANOVA using the following factors. […]

[2] = target: PKCδ (Homo sapiens, UniProt Q05655); assay: Lance-FRET kinase assay, PKCδ; type: biochemical; set-up: purchased SignalChem Biotech
Sequence of PKCδ (Q05655 whole entry): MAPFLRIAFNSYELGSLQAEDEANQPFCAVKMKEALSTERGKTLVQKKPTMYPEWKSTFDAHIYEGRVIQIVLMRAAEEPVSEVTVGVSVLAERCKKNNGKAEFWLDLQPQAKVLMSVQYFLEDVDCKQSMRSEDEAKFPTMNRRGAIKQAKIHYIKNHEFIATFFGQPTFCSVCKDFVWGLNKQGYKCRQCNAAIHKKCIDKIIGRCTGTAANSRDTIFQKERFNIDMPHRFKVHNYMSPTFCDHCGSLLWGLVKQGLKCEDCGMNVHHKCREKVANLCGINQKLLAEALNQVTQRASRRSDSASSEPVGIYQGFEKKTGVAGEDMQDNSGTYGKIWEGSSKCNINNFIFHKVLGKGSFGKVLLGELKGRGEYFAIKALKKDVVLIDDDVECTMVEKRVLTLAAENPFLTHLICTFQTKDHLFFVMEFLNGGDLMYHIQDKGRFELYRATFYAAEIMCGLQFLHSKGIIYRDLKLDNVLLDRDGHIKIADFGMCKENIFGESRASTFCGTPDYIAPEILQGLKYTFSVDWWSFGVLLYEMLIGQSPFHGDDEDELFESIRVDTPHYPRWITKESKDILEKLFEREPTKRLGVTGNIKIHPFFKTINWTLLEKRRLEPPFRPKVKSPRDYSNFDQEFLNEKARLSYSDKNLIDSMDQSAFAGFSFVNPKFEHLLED
Protocol: as §1, §2

[3] = target: T2, CLK4 (Homo sapiens, UniProt Q9HAZ1); assay: scanMax kinome panel, CLK4; type: binding; conditions: 200 nM CP612; read-out: scanMax % of control, CLK4
T2 construct: purchased Eurofins-DiscoverX
T2 sequence (Q9HAZ1 whole entry): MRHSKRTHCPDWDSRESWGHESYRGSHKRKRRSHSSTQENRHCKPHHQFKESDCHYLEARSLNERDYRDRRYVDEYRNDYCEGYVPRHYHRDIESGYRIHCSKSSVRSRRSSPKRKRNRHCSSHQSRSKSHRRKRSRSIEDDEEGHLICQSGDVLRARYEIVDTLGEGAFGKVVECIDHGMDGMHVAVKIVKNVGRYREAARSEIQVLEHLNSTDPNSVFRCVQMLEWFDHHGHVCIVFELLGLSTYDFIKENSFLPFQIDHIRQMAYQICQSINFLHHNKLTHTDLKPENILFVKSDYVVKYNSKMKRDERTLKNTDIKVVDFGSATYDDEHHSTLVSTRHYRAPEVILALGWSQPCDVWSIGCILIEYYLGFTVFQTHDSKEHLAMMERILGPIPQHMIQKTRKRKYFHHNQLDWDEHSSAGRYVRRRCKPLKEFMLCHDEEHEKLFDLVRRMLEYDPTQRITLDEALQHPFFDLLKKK
Protocol: (§3) CP612 was screened for kinome specificity at 200 nM against 468 kinases using the scanMax assay panel from Eurofins-DiscoverX. CP612 inhibited 10 other WT kinases besides PKCε, all to < 10% of control: CLK1 (CDC Like Kinase 1), CLK4, PKN1 (Protein kinase N1), PKN2, PKCδ, PKCη, PKCθ, PRKG2 (Protein Kinase CGMP-Dependent 2), ROCK1, and ROCK2.

[4] = target: T3, ROCK2 (Homo sapiens, UniProt O75116); assay: scanMax kinome panel, ROCK2; type: binding; conditions: 200 nM CP612
T3 construct: purchased Eurofins-DiscoverX
T3 sequence (O75116 whole entry): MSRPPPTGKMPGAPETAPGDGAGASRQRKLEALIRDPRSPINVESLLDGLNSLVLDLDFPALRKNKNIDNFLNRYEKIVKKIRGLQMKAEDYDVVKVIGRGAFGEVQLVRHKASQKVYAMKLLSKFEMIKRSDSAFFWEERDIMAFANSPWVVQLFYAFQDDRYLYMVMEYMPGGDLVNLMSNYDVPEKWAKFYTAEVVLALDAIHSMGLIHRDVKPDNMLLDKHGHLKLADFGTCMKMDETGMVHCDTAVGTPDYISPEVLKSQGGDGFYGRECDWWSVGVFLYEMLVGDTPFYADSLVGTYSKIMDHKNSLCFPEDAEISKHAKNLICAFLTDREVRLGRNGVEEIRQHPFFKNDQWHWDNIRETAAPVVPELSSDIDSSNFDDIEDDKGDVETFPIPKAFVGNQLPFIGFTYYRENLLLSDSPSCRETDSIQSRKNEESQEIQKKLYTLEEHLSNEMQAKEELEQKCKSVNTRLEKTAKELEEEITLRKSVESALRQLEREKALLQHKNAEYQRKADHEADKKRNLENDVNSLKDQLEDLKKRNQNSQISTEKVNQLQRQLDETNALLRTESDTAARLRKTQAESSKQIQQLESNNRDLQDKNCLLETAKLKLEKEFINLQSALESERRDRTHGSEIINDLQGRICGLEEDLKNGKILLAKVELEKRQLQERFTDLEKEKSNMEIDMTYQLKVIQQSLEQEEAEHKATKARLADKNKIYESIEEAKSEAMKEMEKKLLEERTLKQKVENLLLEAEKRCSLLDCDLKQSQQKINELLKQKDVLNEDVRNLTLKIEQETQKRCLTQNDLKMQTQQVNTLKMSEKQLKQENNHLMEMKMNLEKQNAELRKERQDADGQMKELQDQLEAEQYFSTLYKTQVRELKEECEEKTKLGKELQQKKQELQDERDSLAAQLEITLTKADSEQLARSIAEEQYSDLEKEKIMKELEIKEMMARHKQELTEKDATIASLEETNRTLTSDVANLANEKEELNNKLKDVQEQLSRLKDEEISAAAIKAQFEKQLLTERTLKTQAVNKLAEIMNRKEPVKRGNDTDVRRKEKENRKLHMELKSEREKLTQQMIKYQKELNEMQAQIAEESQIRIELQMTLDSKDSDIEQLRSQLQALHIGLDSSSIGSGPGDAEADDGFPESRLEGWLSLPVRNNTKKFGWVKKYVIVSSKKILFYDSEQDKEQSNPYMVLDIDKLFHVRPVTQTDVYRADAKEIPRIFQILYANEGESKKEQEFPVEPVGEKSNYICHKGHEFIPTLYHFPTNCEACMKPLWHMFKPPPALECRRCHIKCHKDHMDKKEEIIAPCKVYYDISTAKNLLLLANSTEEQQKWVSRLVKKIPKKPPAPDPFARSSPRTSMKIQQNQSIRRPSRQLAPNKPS
Protocol: as §3

[5] = tested on: paclitaxel-induced hyperalgesia; assay: Paclitaxel-induced hyperalgesia, Randall-Selitto paw pressure test; conditions: for Force applied that led to paw withdrawal: one paw
Protocol: We tested if CP612 reverses this hyperalgesia. Male rats received repeated injections of paclitaxel (1 mg/kg, i.p. on days 1, 3, 5, and 7). Twenty-four hours after the last dose of paclitaxel, rats were administered vehicle (2 mL/kg, i.p.) or CP612 (20 mg/kg, i.p.).
Mechanical nociceptive thresholds in rats were quantified by the Randall-Selitto paw pressure test using an Ugo Basile Analgesy-Meter. This device applies a linearly increasing mechanical force to the dorsum or plantar region of the rat hind paw. The mechanical nociceptive threshold is defined as the force in grams at which a rat withdraws its paw. The higher the force to elicit paw withdrawal, the higher the pain threshold (and the lower the sensitivity to pain). For studies testing nociceptive thresholds after the PKCε activator ψεRACK, or after the cancer chemotherapeutic drug paclitaxel, rats were placed into cylindrical acrylic restrainers for 40 minutes before starting each session. The restrainers had lateral ports to allow access to the hind paw, as previously described ([35]), and pain thresholds were measured by applying force to the dorsum of the hind paw. Prior to starting experiments, baseline mechanical nociceptive threshold was obtained as the mean of 2–3 readings on 1 hind paw in each rat.

[6] = tested on: hyperalgesia induced by morphine withdrawal; assay: Prevention of hyperalgesia due to morphine withdrawal, von Frey SUDO; type: in vivo, C57BL/6J mice; conditions: for von Frey filament number that led to paw withdrawal: prevention, individual mouse
Source text: We next investigated if CP612 prevents hyperalgesia induced by withdrawal from repeated administration of morphine, in male and female C57BL/6J mice. […] These findings indicate that a single dose of the PKCε inhibitor can prevent hyperalgesia induced by opioid withdrawal.

[7] = target: PKCθ (Homo sapiens, UniProt Q04759); assay: Lance-FRET kinase assay, PKCθ; type: biochemical; set-up: purchased SignalChem Biotech
Sequence of PKCθ (Q04759 whole entry): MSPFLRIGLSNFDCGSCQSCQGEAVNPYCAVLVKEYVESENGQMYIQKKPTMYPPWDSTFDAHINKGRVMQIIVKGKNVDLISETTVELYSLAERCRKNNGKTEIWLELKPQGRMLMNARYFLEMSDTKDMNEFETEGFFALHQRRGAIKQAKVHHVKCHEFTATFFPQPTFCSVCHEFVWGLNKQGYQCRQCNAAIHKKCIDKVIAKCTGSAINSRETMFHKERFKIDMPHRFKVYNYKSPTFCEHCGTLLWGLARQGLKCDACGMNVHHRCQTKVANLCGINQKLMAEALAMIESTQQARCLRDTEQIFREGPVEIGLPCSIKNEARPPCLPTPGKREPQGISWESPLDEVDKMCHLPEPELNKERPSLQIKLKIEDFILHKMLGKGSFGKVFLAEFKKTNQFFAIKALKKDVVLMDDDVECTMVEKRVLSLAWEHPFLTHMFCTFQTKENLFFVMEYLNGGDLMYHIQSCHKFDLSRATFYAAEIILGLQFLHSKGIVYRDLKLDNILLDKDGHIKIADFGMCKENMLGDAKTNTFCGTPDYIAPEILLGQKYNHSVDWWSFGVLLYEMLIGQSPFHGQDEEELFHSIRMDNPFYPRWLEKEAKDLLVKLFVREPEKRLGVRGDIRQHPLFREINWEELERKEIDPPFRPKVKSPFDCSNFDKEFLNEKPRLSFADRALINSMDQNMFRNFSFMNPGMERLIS
Protocol: as §1, §2

[8] = Kinetic aqueous solubility; type: physicochemical
Protocol: Kinetic aqueous solubility. Test compounds were diluted 100-fold from 1 mM DMSO stocks into 0.1M phosphate-buffered saline (PBS) in triplicate. Diluted samples were shaken at room temperature at 600 rpm for 3 hours and then filtered by centrifugation (0.2 μm, PVDF) at 1,000g for 1 minute. Aliquots of 100 μL were diluted into 3 volumes of acetonitrile for extraction, vortexed for 15 seconds, centrifuged at 16,000g for 10 minutes at 4°C, and then analyzed by liquid chromatography–mass spectrometry (LC-MS).

[9] = target: T4, PKN1 (Protein kinase N1) (Homo sapiens, UniProt Q16512); assay: scanMax kinome panel, PKN1; type: binding; conditions: 200 nM CP612; read-out: scanMax % of control, PKN1
T4 construct: purchased Eurofins-DiscoverX
T4 sequence (Q16512 whole entry): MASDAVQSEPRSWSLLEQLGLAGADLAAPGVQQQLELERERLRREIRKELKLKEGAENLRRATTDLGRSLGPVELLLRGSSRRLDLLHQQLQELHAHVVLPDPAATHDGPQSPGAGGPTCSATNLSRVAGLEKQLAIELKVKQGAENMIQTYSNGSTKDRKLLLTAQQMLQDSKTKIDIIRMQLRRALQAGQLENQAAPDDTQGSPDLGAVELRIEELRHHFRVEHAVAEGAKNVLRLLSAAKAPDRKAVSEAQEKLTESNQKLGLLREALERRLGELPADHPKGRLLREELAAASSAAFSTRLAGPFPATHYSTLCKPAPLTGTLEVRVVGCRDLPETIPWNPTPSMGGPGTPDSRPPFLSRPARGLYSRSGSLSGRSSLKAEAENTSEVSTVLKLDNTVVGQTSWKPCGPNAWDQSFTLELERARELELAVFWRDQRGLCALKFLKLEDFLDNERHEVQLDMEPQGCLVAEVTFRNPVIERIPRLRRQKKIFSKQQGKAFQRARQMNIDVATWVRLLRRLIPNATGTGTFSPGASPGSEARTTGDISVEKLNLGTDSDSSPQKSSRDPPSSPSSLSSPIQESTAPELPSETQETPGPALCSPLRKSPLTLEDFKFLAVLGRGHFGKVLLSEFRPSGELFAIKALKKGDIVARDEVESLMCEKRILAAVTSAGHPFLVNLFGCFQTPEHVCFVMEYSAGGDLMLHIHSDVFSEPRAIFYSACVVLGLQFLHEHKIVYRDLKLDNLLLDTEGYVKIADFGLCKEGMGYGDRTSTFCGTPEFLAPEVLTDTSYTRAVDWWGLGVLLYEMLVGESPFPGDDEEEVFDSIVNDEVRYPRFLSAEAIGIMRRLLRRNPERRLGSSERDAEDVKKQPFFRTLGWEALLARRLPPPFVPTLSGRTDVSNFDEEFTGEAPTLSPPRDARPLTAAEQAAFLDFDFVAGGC
Protocol: as §3

N[C@H](CNC(=O)C1(c2ccc(Cl)cc2)CCCC1)c1ccc(C(=O)Nc2ccncc2)cc1 [CP612]
Inhibition of conventional PKCβII [1]: weakly inhibited | inhibition at 0.03 µM ([2]; 30 nM CP612, read-out: Inhibition of novel PKCs (PKCδ)): > 50% | IC50 ([2]; Figure 1B PKC isozyme panel): 0.0188 µM | remaining binding at 0.2 µM [3]: < 10% | scanMax % of control, ROCK2 [4]: < 10 % of control | Force applied that led to paw withdrawal ([5]; 0min (24 h after last paclitaxel, before CP612)): 95 grams and 102.5 grams and 100 grams and 97.5 grams and 101.7 grams | Force applied that led to paw withdrawal ([5]; 15min after CP612 20 mg/kg intraperitoneally, 20 mg/kg): 120 grams and 125 grams and 110 grams and 115 grams and 117.5 grams | Force applied that led to paw withdrawal ([5]; 30min after CP612 20 mg/kg intraperitoneally, 20 mg/kg): 110 grams and 122.5 grams and 117.5 grams and 112.5 grams | Force applied that led to paw withdrawal ([5]; 60min after CP612 20 mg/kg intraperitoneally, 20 mg/kg): 111.7 grams and 120 grams and 116.7 grams and 113.3 grams and 121.7 grams | Force applied that led to paw withdrawal ([5]; 120min after CP612 20 mg/kg intraperitoneally, 20 mg/kg): 101.7 grams and 116.7 grams and 111.7 grams and 103.3 grams and 96.7 grams and 115 grams | Force applied that led to paw withdrawal ([5]; 24h after CP612 20 mg/kg intraperitoneally, 20 mg/kg): 85 grams and 116.7 grams and 90 grams and 91.7 grams and 96.7 grams | Force applied that led to paw withdrawal ([5]; baseline (before paclitaxel and CP612)): 127.5 grams and 125 grams and 140 grams | Effect on paclitaxel-induced hyperalgesia ([5]; male rats, CP612 20 mg/kg i.p., 15, 30, 60 and 120 minutes): attenuated | Decrease in paclitaxel-induced hyperalgesia 1 day after CP612 ([5]; male rats, CP612 20 mg/kg i.p., 24 hours): dissipated | Effect on pain thresholds after repeated saline ([6]; male and female mice, CP612 20 mg/kg i.p.): not modified | Effect on development of morphine-withdrawal hyperalgesia ([6]; male and female mice, CP612 20 mg/kg i.p. 6 hours after last morphine injection): prevented | von Frey filament number that led to paw withdrawal ([6]; female mice, Morphine schedule, 1week): 9 and 8 | von Frey filament number that led to paw withdrawal ([6]; female mice, Morphine schedule, 2weeks): 8.75 | von Frey filament number that led to paw withdrawal ([6]; female mice, Morphine schedule, 3weeks): 8.5 | von Frey filament number that led to paw withdrawal ([6]; female mice, Morphine schedule, 4weeks): 8.5 | von Frey filament number that led to paw withdrawal ([6]; female mice, Morphine schedule, 24h): 7.5 and 9.5 | von Frey filament number that led to paw withdrawal ([6]; female mice, Morphine schedule, Baseline): 9 and 9.5 | von Frey filament number that led to paw withdrawal ([6]; female mice, Saline schedule, 1week): 9.5 and 9 and 8.5 and 10 | von Frey filament number that led to paw withdrawal ([6]; female mice, Saline schedule, 2weeks): 9.5 and 9 and 10 | von Frey filament number that led to paw withdrawal ([6]; female mice, Saline schedule, 3weeks): 9 and 9.5 and 10 | von Frey filament number that led to paw withdrawal ([6]; female mice, Saline schedule, 4weeks): 9.5 and 9 and 10 | von Frey filament number that led to paw withdrawal ([6]; female mice, Saline schedule, 24h): 9 and 8 and 8.5 and 10 | von Frey filament number that led to paw withdrawal ([6]; female mice, Saline schedule, Baseline): 9.5 and 8.5 and 9 and 10 and 10.5 | von Frey filament number that led to paw withdrawal ([6]; male mice, Morphine schedule, 1week): 9.5 and 7.5 and 8.5 and 9 and 8 and 10 | von Frey filament number that led to paw withdrawal ([6]; male mice, Morphine schedule, 2weeks): 9 and 7.5 and 8 and 9.5 and 9.25 and 7.75 and 10.5 | von Frey filament number that led to paw withdrawal ([6]; male mice, Morphine schedule, 3weeks): 8 and 9 and 9.5 and 10.5 | von Frey filament number that led to paw withdrawal ([6]; male mice, Morphine schedule, 4weeks): 8 and 7.5 and 9.5 and 9 and 11 and 10 | von Frey filament number that led to paw withdrawal ([6]; male mice, Morphine schedule, 24h): 8.5 and 7.5 and 9.5 and 8 and 7 and 10.5 | von Frey filament number that led to paw withdrawal ([6]; male mice, Morphine schedule, Baseline): 7.5 and 7 and 8.5 and 9.5 and 9 | von Frey filament number that led to paw withdrawal ([6]; male mice, Saline schedule, 1week): 9 and 8.5 and 9.5 and 10.5 and 10 | von Frey filament number that led to paw withdrawal ([6]; male mice, Saline schedule, 2weeks): 6.5 and 7 and 9 and 8.5 and 8 and 9.5 and 10 | von Frey filament number that led to paw withdrawal ([6]; male mice, Saline schedule, 3weeks): 9.5 and 9 and 10 | von Frey filament number that led to paw withdrawal ([6]; male mice, Saline schedule, 4weeks): 8 and 6.5 and 6 and 9 and 7.5 and 9.5 and 10 and 10.5 | von Frey filament number that led to paw withdrawal ([6]; male mice, Saline schedule, 24h): 7.5 and 7 and 9 and 9.5 and 10 | von Frey filament number that led to paw withdrawal ([6]; male mice, Saline schedule, Baseline): 7.5 and 8.5 and 6.5 and 8 and 9 and 9.5 and 10.5 | Duration of prevention of hyperalgesia after administration ([6]; single dose CP612 20 mg/kg i.p.): up to 4 weeks | inhibition at 0.03 µM ([7]; 30 nM CP612, read-out: Inhibition of novel PKCs (PKCθ)): > 50% | IC50 ([7]; Figure 1B PKC isozyme panel): 0.0307 µM | solubility kinetic at 3 h ([8]; 0.1M phosphate-buffered saline (PBS), aqueous buffer, kinetic from dmso stock, 0.1M PBS, room temperature, 3 hours, read-out: Kinetic aqueous solubility): 7410 ± 120 nM (≈ 3.43 µg/mL) | solubility kinetic at 3 h ([8]; 0.1M phosphate-buffered saline (PBS), aqueous buffer, kinetic from dmso stock, mean of 3 samples, read-out: Kinetic aqueous solubility, Corrected (nM), Mean): 7410 nM (≈ 3.43 µg/mL) | solubility kinetic at 3 h ([8]; 0.1M phosphate-buffered saline (PBS), aqueous buffer, kinetic from dmso stock, single sample, read-out: Kinetic aqueous solubility, Corrected): 7540 nM (≈ 3.49 µg/mL) | solubility kinetic at 3 h ([8]; single sample, read-out: Kinetic aqueous solubility, Corrected): 7309.08 nM and 7388.24 nM | remaining binding at 0.2 µM [9]: < 10%
